Source: US11932634B2 (Gilead Sciences, Inc., priority 2021, dated 2024)

Key:
human DGKα = target: T1, human DGKα (Homo sapiens, UniProt P23743); assay: DGKα Biochemical Activity Assay (ADP-Glo);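 also: recombinant enzyme converting diacylglycerol in lipid micelles with ATP, ADP formed detected by luminescence, IC50 from a four-parameter nonlinear fit, geometric mean across experiments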
T1 construct: purchased Carna Biosciences'; inferred from the same paragraph's 'obtained from Carna Biosciences')
From the text: Alternatively, the enzymatic activity of human DGKα was monitored in a biochemical assay in the presence or absence of compounds and using micelles containing 18:1 Diacylglycerol (DAG), 16:0-18:1 PS (POPS) and Octylglucoside as substrate. DGKα activity led to conversion of DAG and ATP to Phosphatidic Acid (PA) and ADP. Levels of ADP were monitored by bioluminescence using the ADP-Glo Kinase Assay (Promega) and were indicative of DGKα activity.
Ten nanoliters of test compound dissolved in DMSO at various concentrations were dispensed into a 384-well low volume nonbinding service white plates (Corning #3824) using a Labcyte Echo instrument. Recombinant DGKα Biosciences) in assay buffer (5 μL in 50 mM MOPS [3-(N-morpholino) propanesulfonic acid], pH 7.2; 0.0025% Triton X-100; 1 mM dithiothreitol; 5 mM MgCl2, 200 μM ATP) was added to the compound-containing plate and was incubated for 15 minutes at 25° C. A substrate solution (5 μL in 1.7 mM 1,2-dioleoyl-sn-glycerol [18:1 DAG], 13.5 mM 1-palmitoyl-2-oleoyl-sn-glycero-3-phospho-L-serine [16:0-18:1 PS](POPS), 2 μM CaCl2), 100 mM Octylglucoside (OG), 1 mM DTT) (obtained from Carna Biosciences) diluted in DGK ALPHA assay buffer was then added to start the reaction. Final concentrations were 1 nM DGKα, 100 μM ATP, 1 μM calcium chloride, 0.85 mM 1,2-dioleoyl-sn-glycerol (18:1 DAG), 6.75 mM 1-palmitoyl-2-oleoyl-sn-glycero-3-phospho-L-serine (16:0-18:1 PS) (POPS), 1 μM CaCl2), 50 mM Octylglucoside (OG) and 5 mM MgCl2. The reaction mixture was incubated at 25° C. for 1 hour. ADP-Glo Reagent (10 μL, 10 mM Mg added) provided by the kit was added to each well and incubated at 25° C. for 40 minutes. Then, 20 μL of Kinase Detection Reagent was added and incubated at 25° C. for 40 minutes. Luciferase activity of each well was measured via luminescence on an Envision plate reader (PerkinElmer).
Least squares curve fittings were performed using a four-parameter variable slope nonlinear regression model. […] IC50 values from multiple experiments were averaged by geometric mean and the standard deviation was calculated.

[1] = test system: Jurkat NFκB-luciferase cells; assay: Jurkat NFκB-Luciferase Assay; format: cell-based; conditions: Homo sapiens; Jurkat NFκB-luciferase cells activated with anti-CD3 antibody (OKT3), 2.5 hrs at 37° C., One-Glo Ex; geometric mean; read-out: DGK NFKb Luciferase EC50;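 also: bioluminescence read-out normalized to DMSO basal activation and to maximum enhancement at 1 µM compound, rising signal indicating stronger T-cell activation through DGKα inhibition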
Method: The activity of compounds was tested in a cell based NFκB reporter assay. Jurkat cells that are stably expressing a luciferase reporter construct under the transcriptional control of a NFκB reporter element were activated with an anti-CD3 antibody and luciferase levels were measured with a bioluminescence readout.
The day after, the excess antibody was washed out five times with 100 ul/well of assay medium (RPMI supplemented with 10% fetal bovine serum) using a Biotek EL406 instrument and leaving 20 µl of residual volume in each well. Jurkat NFκB-luciferase cells (Promega #) were harvested and diluted to 1 million cells/ml in assay medium. Sixty nanoliters of test compound dissolved in DMSO at various concentrations were dispensed into 384-well v-bottom polypropylene plates (Greiner) using a Labcyte Echo instrument. Thirty microliters of medium containing the Jurkat NFκB-luciferase cells were then dispensed using a Biotek MicroFlo instrument in each well of the compound-containing plate. The medium/cell/compound mixture was mixed with a Bravo instrument and 20 ul/well of the mixture was transferred to the anti-CD3-coated plate. The assay mixture was then incubated for 2.5 hrs at 37° C. followed by equilibration at 25° C. for 30 min. Forty microliters of One-Glo Ex (Promega) was then added to the assay mixture and luciferase activity was read on a Envision plate reader 7 minutes later.
Bioluminescence data were normalized based on maximum enhancement (1 micromolar of compound) and on basal activation (DMSO) controls. Least squares curve fittings were performed using a four-parameter variable slope nonlinear regression model. […] EC50 values from multiple experiments were averaged by geometric mean and the standard deviation was calculated.

T1 sequence (P23743 whole entry): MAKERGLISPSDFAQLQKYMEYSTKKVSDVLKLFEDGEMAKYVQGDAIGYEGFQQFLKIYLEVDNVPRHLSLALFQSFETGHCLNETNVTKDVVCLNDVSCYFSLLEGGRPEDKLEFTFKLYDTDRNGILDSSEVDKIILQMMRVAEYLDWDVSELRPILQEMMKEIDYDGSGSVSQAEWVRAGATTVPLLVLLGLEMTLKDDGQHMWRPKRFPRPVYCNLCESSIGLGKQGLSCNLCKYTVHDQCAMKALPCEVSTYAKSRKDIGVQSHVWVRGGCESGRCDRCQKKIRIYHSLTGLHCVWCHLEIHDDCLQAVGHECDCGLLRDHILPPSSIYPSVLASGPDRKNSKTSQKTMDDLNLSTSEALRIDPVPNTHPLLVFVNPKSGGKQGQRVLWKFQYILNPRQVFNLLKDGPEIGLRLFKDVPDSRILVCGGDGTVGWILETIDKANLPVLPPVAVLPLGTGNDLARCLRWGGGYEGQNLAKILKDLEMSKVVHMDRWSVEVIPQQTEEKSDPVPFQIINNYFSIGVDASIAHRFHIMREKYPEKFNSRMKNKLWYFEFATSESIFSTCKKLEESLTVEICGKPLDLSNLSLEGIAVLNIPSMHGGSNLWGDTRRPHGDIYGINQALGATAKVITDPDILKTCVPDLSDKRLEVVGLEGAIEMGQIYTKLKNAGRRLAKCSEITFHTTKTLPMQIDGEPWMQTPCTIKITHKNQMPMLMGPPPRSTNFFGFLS

SMILES	IC50 (human DGKα) [nM]	EC50 [1] [nM]
CC(C)(C#Cc1cccc2c1COCCN2c1nc(=O)[nH]c2cccc(F)c12)C(F)(F)F [Example 92, 5-fluoro-4-(6-(4,4,4-trifluoro-3,3-dimethylbut-1-yn-1-yl)-2,3-dihydrobenzo[e][1,4]oxazepin-1(5H)-yl)quinazolin-2(1H)-one]	37.4	1.66
CC1(C#Cc2cccc3c2COCCN3c2nc(=O)[nH]c3cccc(F)c23)COC1 [Example 93, 5-fluoro-4-(6-((3-methyloxetan-3-yl)ethynyl)-2,3-dihydrobenzo[e][1,4]oxazepin-1(5H)-yl)quinazolin-2(1H)-one]	6.6	7.25
[2H]C([2H])([2H])n1c(=O)nc(N2CCOCc3c(C#CC(C)(C)O)cccc32)c2c(F)cccc21 [Example 94, 5-fluoro-4-[6-(3-hydroxy-3-methyl-but-1-ynyl)-3,5-dihydro-2H-4,1-benzoxazepin-1-yl]-1-(trideuteriomethyl)quinazolin-2-one]	7.77	16.1
[2H]C([2H])([2H])n1c(=O)nc(N2CCOCc3c(C#CC(C)(C)C#N)cccc32)c2c(F)cccc21 [Example 95, 4-[1-[5-fluoro-2-oxo-1-(trideuteriomethyl)quinazolin-4-yl]-3,5-dihydro-2H-4,1-benzoxazepin-6-yl]-2,2-dimethyl-but-3-ynenitrile]	2.1	2.29
[2H]C([2H])([2H])n1c(=O)nc(N2CCOCc3c(C#CC(C)(C)O)cccc32)c2c(F)c(F)ccc21 [Example 97, 5,6-difluoro-4-[6-(3-hydroxy-3-methyl-but-1-ynyl)-3,5-dihydro-2H-4,1-benzoxazepin-1-yl]-1-(trideuteriomethyl)quinazolin-2-one]	4.37	15.8
[2H]C([2H])([2H])n1c(=O)nc(N2CCOCc3c(C#CC(C)(C)C#N)cccc32)c2c(F)c(F)ccc21 [Example 98, 4-[1-[5,6-difluoro-2-oxo-1-(trideuteriomethyl)quinazolin-4-yl]-3,5-dihydro-2H-4,1-benzoxazepin-6-yl]-2,2-dimethyl-but-3-ynenitrile]	2.83	3.29
[2H]C([2H])([2H])n1c(=O)nc(N2CCOCc3c(Br)cccc32)c2c(F)cccc21 [Example 99, 4-(6-bromo-2,3-dihydrobenzo[e][1,4]oxazepin-1(5H)-yl)-5-fluoro-1-(methyl-d3)quinazolin-2(1H)-one]	31.2	8.22
[2H]C([2H])([2H])n1c(=O)nc(N2CCOCc3c(C#CC4(C(F)(F)F)CC4)cccc32)c2c(F)cccc21 [Example 100, 5-fluoro-1-(methyl-d3)-4-(6-((1-(trifluoromethyl)cyclopropyl)ethynyl)-2,3-dihydrobenzo[e][1,4]oxazepin-1(5H)-yl)quinazolin-2(1H)-one]	16.6	0.979
[2H]C([2H])([2H])n1c(=O)nc(N2CCOCc3c(C#CC4(C)COC4)cccc32)c2c(F)cccc21 [Example 101, 5-fluoro-1-(methyl-d3)-4-(6-((3-methyloxetan-3-yl)ethynyl)-2,3-dihydrobenzo[e][1,4]oxazepin-1(5H)-yl)quinazolin-2(1H)-one]	2.62	4.09
O=c1nc(N2CCOCc3c(C#CC4(C(F)(F)F)CC4)cccc32)c2cc(F)cc(F)c2[nH]1 [Example 102]	14.7	1.75
CC(C)(O)C#Cc1cccc2c1COCCN2c1nc(=O)[nH]c2c(F)cc(F)cc12 [Example 103]	8.98	47.4
CC(C)(C#N)C#Cc1cccc2c1COCCN2c1nc(=O)[nH]c2c(F)cc(F)cc12 [Example 104]	4.88	5.21
CC1(C#Cc2cccc3c2COCCN3c2nc(=O)[nH]c3c(F)cc(F)cc23)CC1 [Example 105]	6.96	0.85
CC1(C#Cc2cncc3c2CCCN3c2nc(=O)[nH]c3ccc(F)c(F)c23)CC1 [Example 107, 5,6-difluoro-4-(5-((1-methylcyclopropyl)ethynyl)-3,4-dihydro-1,7-naphthyridin-1(2H)-yl)quinazolin-2(1H)-one]	7.96	0.596
O=c1nc(N2CCCc3c(C#CC4(C(F)F)CC4)cncc32)c2c(F)c(F)ccc2[nH]1 [Example 108, 4-(5-((1-(difluoromethyl)cyclopropyl)ethynyl)-3,4-dihydro-1,7-naphthyridin-1(2H)-yl)-5,6-difluoroquinazolin-2(1H)-one]	6.85	1.43
[2H]C([2H])([2H])n1c(=O)nc(N2CCOCc3c(C#CC(C)(C)C(F)(F)F)cccc32)c2c(F)cccc21 [Example 109, 5-fluoro-1-(methyl-d3)-4-(6-(4,4,4-trifluoro-3,3-dimethylbut-1-yn-1-yl)-2,3-dihydrobenzo[e][1,4]oxazepin-1(5H)-yl)quinazolin-2(1H)-one]	6.05	0.501

SMILES	IC50 (human DGKα) [nM]	EC50 [1] [nM]
CC(C)(C#N)C#Cc1cccc2c1COCCN2c1nc(=O)[nH]c2cccc(F)c12 [Example 110, 4-(1-(5-fluoro-2-oxo-1,2-dihydroquinazolin-4-yl)-1,2,3,5-tetrahydrobenzo[e][1,4]oxazepin-6-yl)-2,2-dimethylbut-3-ynenitrile]	6.52	2.82
[2H]C([2H])([2H])n1c(=O)nc(N(CC(F)F)c2cccc(C#CC(C)(C)O)c2F)c2c(F)cccc21 [Example 111, 4-[N-(2,2-difluoroethyl)-2-fluoro-3-(3-hydroxy-3-methyl-but-1-ynyl)anilino]-5-fluoro-1-(trideuteriomethyl)quinazolin-2-one]	3.11	9.32
CC(F)(F)C1(C#Cc2cccc3c2COCCN3c2nc(=O)[nH]c3cccc(F)c23)CC1 [Example 112, 4-(6-((1-(1,1-difluoroethyl)cyclopropyl)ethynyl)-2,3-dihydrobenzo[e][1,4]oxazepin-1(5H)-yl)-5-fluoroquinazolin-2(1H)-one]	23.6	0.973
CC(C)(O)C#Cc1nccc(N(CC(F)F)c2nc(=O)[nH]c3cccc(F)c23)c1F [Example 113, 4-[2,2-difluoroethyl-[3-fluoro-2-(3-hydroxy-3-methyl-but-1-ynyl)-4-pyridyl]amino]-5-fluoro-1H-quinazolin-2-one]	10.4	66.3
CC(C)(O)C#Cc1cc(F)cc(N(CC(F)F)c2nc(=O)[nH]c3c(Cl)cc(F)cc23)c1 [Example 114, 8-chloro-4-[N-(2,2-difluoroethyl)-3-fluoro-5-(3-hydroxy-3-methyl-but-1-ynyl)anilino]-6-fluoro-1H-quinazolin-2-one]	445	112
CC1(C#Cc2nccc(N(CC(F)F)c3nc(=O)[nH]c4cccc(F)c34)c2F)CC1 [Example 115, 4-[2,2-difluoroethyl-[3-fluoro-2-[2-(1-methylcyclopropyl)ethynyl]-4-pyridyl]amino]-5-fluoro-1H-quinazolin-2-one]	6.05	1.21
O=c1nc(N2CCCc3c2ccnc3C#CC2(C(F)(F)F)CC2)c2c(F)c(F)ccc2[nH]1 [Example 116, 5,6-difluoro-4-[5-[2-[1-(trifluoromethyl)cyclopropyl]ethynyl]-3,4-dihydro-2H-1,6-naphthyridin-1-yl]-1H-quinazolin-2-one]	4.07	0.945
[2H]C([2H])([2H])n1c(=O)nc(N(CC(F)F)c2ccnc(C#CC3(C)CC3)c2)c2c(F)c(F)ccc21 [Example 117, 4-[2,2-difluoroethyl-[2-[2-(1-methylcyclopropyl)ethynyl]-4-pyridyl]amino]-5,6-difluoro-1-(trideuteriomethyl)quinazolin-2-one]	3.36	4.7
O=c1nc(N(CC(F)F)c2ccnc(C#CC3(C(F)(F)F)CC3)c2F)c2c(F)cccc2[nH]1 [Example 118, 4-[2,2-difluoroethyl-[3-fluoro-2-[2-[1-(trifluoromethyl)cyclopropyl]ethynyl]-4-pyridyl]amino]-5-fluoro-1H-quinazolin-2-one]	25.7	3.73
CC(C)(C#N)C#Cc1nccc(N(CC(F)F)c2nc(=O)[nH]c3cccc(F)c23)c1F [Example 119, 4-[4-[2,2-difluoroethyl-(5-fluoro-2-oxo-1H-quinazolin-4-yl)amino]-3-fluoro-2-pyridyl]-2,2-dimethyl-but-3-ynenitrile]	10.8	7.11
[2H]C([2H])([2H])n1c(=O)nc(N(CC(F)F)c2ccnc(C#Cc3cnn(C)c3)c2)c2c(F)c(F)ccc21 [Example 120, 4-[2,2-difluoroethyl-[2-[2-(1-methylpyrazol-4-yl)ethynyl]-4-pyridyl]amino]-5,6-difluoro-1-(trideuteriomethyl)quinazolin-2-one]	5.77	34.9
CC(C)(C#Cc1nccc(N(CC(F)F)c2nc(=O)[nH]c3cccc(F)c23)c1F)C(F)F [Example 121, 4-[[2-(4,4-difluoro-3,3-dimethyl-but-1-ynyl)-3-fluoro-4-pyridyl]-(2,2-difluoroethyl)amino]-5-fluoro-1H-quinazolin-2-one]	20.7	8.44
O=c1nc(N(CC(F)F)c2ccnc(C#CC3CC3)c2F)c2c(F)cccc2[nH]1 [Example 122, 4-[[2-(2-cyclopropylethynyl)-3-fluoro-4-pyridyl]-(2,2-difluoroethyl)amino]-5-fluoro-1H-quinazolin-2-one]	7	3.46
[2H]C([2H])([2H])n1c(=O)nc(N(CC(F)F)c2ccnc(C#CC(C)(C)C(F)F)c2F)c2c(F)cccc21 [Example 123, 4-[[2-(4,4-difluoro-3,3-dimethyl-but-1-ynyl)-3-fluoro-4-pyridyl]-(2,2-difluoroethyl)amino]-5-fluoro-1-(trideuteriomethyl)quinazolin-2-one]	6.41	2.39
[2H]C([2H])([2H])n1c(=O)nc(N(CC(F)F)c2ccnc(C#CC3(C(F)(F)F)CC3)c2F)c2c(F)cccc21 [Example 124, 4-[2,2-difluoroethyl-[3-fluoro-2-[2-[1-(trifluoromethyl)cyclopropyl]ethynyl]-4-pyridyl]amino]-5-fluoro-1-(trideuteriomethyl)quinazolin-2-one]	12	1.27
